Data taken from US10632181B2, “Composition, containing RGD motif-containing peptide or fragment thereof, for treating burns and glaucoma, alleviating skin wrinkles, and promoting hair growth” (HUONS CO., LTD., priority 2014, dated 2020).

Key:
Type in all cases: in vivo, Women aged 30-65
wrinkles around eyes [1] = experiment: Wrinkle extent around eyes, skin replica, Visiometer SV600; set-up: R3 numerical value (average roughness) / R1 numerical value (skin roughness) / R4 numerical value (smoothness depth) / R5 numerical value (arithmetic average roughness): unit not given here
Method: The extent of wrinkles around eyes was measured using equipment. A target site to measure the wrinkle extent was regions around the eyes of the subjects, and the left side and the right side of the face were set as a measurement site. To measure the wrinkle extent, the subjects were allowed to wash the measurement site with water, and take a rest for 30 minutes in the waiting room under constant temperature and constant humidity conditions of indoor temperature 20-25° C. and humidity 40-60% to acclimate the skin surface temperature and humidity to the environment of the measurement space, and were not permitted to drink water during the rest. For objective measurement, measurements were performed by one researcher, and the same site was measured at each time of the first visit before use and the second and third visits in 2 and 4 weeks after use. Transparency profilometry analysis was performed using Visiometer SV600 (Courage-Khazaka electronic GmbH, Germany) on skin replica of the site to which test product and control product were applied before use and 2 and 4 weeks after use, and to identify if there is any difference in each of control group and experimental group after use, a change (%) in R1, R2, R4, R5 measurement values in 2 and 4 weeks after use relative to before use was analyzed.

wrinkles around eyes [2] = experiment: Wrinkle extent around eyes by 3D imaging (PRIMOS Premium); settings: for Rmax numerical value (maximum height of wrinkle profile) / Rp numerical value (maximum profile peak height) / Rv numerical value (maximum profile valley depth): in µm (unit assumed)
Method: Furthermore, the wrinkle extent was measured by 3D imaging. A target site to measure the wrinkle extent was regions around the eyes of the subjects, and the right side of the face was set as a measurement site. To measure the wrinkle extent, the subjects were allowed to wash the measurement site with water, and take a rest for 30 minutes in the waiting room under constant temperature constant humidity conditions of indoor temperature 20-25° C. and humidity 40-60% to acclimate the skin surface temperature and humidity to the environment of the measurement space, and were not permitted to drink water during the rest. For objective measurement, measurements were performed by one researcher, and the same site was measured at each time of the first visit before use and the second and third visits in 2 and 4 weeks after use. Before use and in 2 and 4 weeks after use, images of the site to which the test product (HU022 (SEQ ID NO:1)) was applied were formed using 3D skin imaging machine (PRIMOS Premium), and to verify if there is any difference in each of control group and experimental group in 4 weeks after use, wrinkle parameters, Ra, Rmax, Rt, Rp, Rv values, in the stored images of 2 weeks and 4 weeks after use relative to before use were analyzed.

wrinkles around eyes [3] = experiment: Expert visual assessment of wrinkles (global photodamage score); settings: for expert visual assessment score: severity 0-7
Method: Furthermore, visual assessment was performed. At each visit before and after use, experts assessed the wrinkle extent by scoring using global photodamage score (Br J Dermatol. 2010; 162(3):497-502). To verify if there is any difference in each of control group and experimental group in 4 weeks after use, a change (%) in visual assessment scores of 2 weeks and 4 weeks after use relative to before use was analyzed. The visual assessment scores are as follows (Table 18): […]

wrinkles around eyes [4] = experiment: Survey of subjects about wrinkle reduction effectiveness
Method: Furthermore, surveying the subjects about effectiveness was conducted. The subjects were asked to personally make responses about the extent to which the subjects felt that wrinkles reduced after use of test product using 5 levels: better (4), a little bit better (3), no change (2), a little bit worse (1), worse (0). The researcher determined if test product has efficacy by calculating the percentage of the number of subjects for each response.

wrinkles around eyes [5] = experiment: Wrinkle extent around eyes, skin replica, Visiometer SV600; set-up: R3 numerical value (average roughness): unit not given here; settings: Before use
[6] = response 2 (fair), 4 weeks after use
[7] = response 3 (good), 4 weeks after use

HU022: polypeptide consisting of 452nd-509th amino acids of ADAM 15 (GenBank AAH14566.1), 58 amino acids; commercial product (EYEGENE Inc.)
R1 numerical value (skin roughness) (wrinkles around eyes [1]; 2 weeks after use, twice daily): 54.59 ± 10.99 | R2 numerical value (maximum roughness) (wrinkles around eyes [1]; 2 weeks after use, twice daily): 36.87 ± 6.02 | R3 numerical value (average roughness) (wrinkles around eyes [1]; 2 weeks after use, twice daily): 24.41 ± 4.16 | R4 numerical value (smoothness depth) (wrinkles around eyes [1]; 2 weeks after use, twice daily): 23.64 ± 5.11 | R5 numerical value (arithmetic average roughness) (wrinkles around eyes [1]; 2 weeks after use, twice daily): 9.44 ± 2.44 | R1 numerical value (skin roughness) (wrinkles around eyes [1]; 4 weeks after use, twice daily): 51.06 ± 19.28 | R2 numerical value (maximum roughness) (wrinkles around eyes [1]; 4 weeks after use, twice daily): 29.16 ± 5.12 | R3 numerical value (average roughness) (wrinkles around eyes [1]; 4 weeks after use, twice daily): 18.62 ± 2.79 | R4 numerical value (smoothness depth) (wrinkles around eyes [1]; 4 weeks after use, twice daily): 22.94 ± 10.03 | R5 numerical value (arithmetic average roughness) (wrinkles around eyes [1]; 4 weeks after use, twice daily): 10.10 ± 5.97 | R1 numerical value (skin roughness) (wrinkles around eyes [1]; Before use): 76.23 ± 12.15 | R2 numerical value (maximum roughness) (wrinkles around eyes [1]; Before use): 54.26 ± 5.70 | R4 numerical value (smoothness depth) (wrinkles around eyes [1]; Before use): 30.41 ± 7.01 | R5 numerical value (arithmetic average roughness) (wrinkles around eyes [1]; Before use): 13.57 ± 3.65 | Change(%) in R1 (wrinkles around eyes [1]; Before use-2 weeks after use): −28.38% | Change(%) in R4 (wrinkles around eyes [1]; Before use-2 weeks after use): −22.27% | Change(%) in R5 (wrinkles around eyes [1]; Before use-2 weeks after use): −30.43% | Change(%) in R1 (wrinkles around eyes [1]; Before use-4 weeks after use): −33.02% | Change(%) in R3 (wrinkles around eyes [1]; Before use-4 weeks after use): −45.62% | Change(%) in R4 (wrinkles around eyes [1]; Before use-4 weeks after use): −24.57% | Change(%) in R5 (wrinkles around eyes [1]; Before use-4 weeks after use): −26.52% | Ra numerical value (roughness average of wrinkle profile) (wrinkles around eyes [2]; 2 weeks after use, twice daily): 18.20 ± 3.94 | Rt numerical value (distance between highest peak and lowest valley) (wrinkles around eyes [2]; 2 weeks after use, twice daily): 187.85 ± 34.10 | Rmax numerical value (maximum height of wrinkle profile) (wrinkles around eyes [2]; 2 weeks after use, twice daily): 168.83 ± 29.61 | Rp numerical value (maximum profile peak height) (wrinkles around eyes [2]; 2 weeks after use, twice daily): 116.47 ± 35.75 | Rv numerical value (maximum profile valley depth) (wrinkles around eyes [2]; 2 weeks after use, twice daily): 71.38 ± 16.44 | Ra numerical value (roughness average of wrinkle profile) (wrinkles around eyes [2]; 4 weeks after use, twice daily): 17.00 ± 3.88 | Rt numerical value (distance between highest peak and lowest valley) (wrinkles around eyes [2]; 4 weeks after use, twice daily): 184.63 ± 36.83 | Rmax numerical value (maximum height of wrinkle profile) (wrinkles around eyes [2]; 4 weeks after use, twice daily): 168.80 ± 33.21 | Rp numerical value (maximum profile peak height) (wrinkles around eyes [2]; 4 weeks after use, twice daily): 121.88 ± 38.06 | Rv numerical value (maximum profile valley depth) (wrinkles around eyes [2]; 4 weeks after use, twice daily): 62.75 ± 11.92 | Ra numerical value (roughness average of wrinkle profile) (wrinkles around eyes [2]; Before use): 19.19 ± 4.27 | Rt numerical value (distance between highest peak and lowest valley) (wrinkles around eyes [2]; Before use): 195.05 ± 31.31 | Change(%) in Ra (wrinkles around eyes [2]; Before use-2 weeks after use): −5.15% | Change(%) in Rmax (wrinkles around eyes [2]; Before use-2 weeks after use): −4.23% | Change(%) in Rp (wrinkles around eyes [2]; Before use-2 weeks after use): −5.10% | Change(%) in Rt (wrinkles around eyes [2]; Before use-2 weeks after use): −3.69% | Change(%) in Rv (wrinkles around eyes [2]; Before use-2 weeks after use): −1.30% | Change(%) in Ra (wrinkles around eyes [2]; Before use-4 weeks after use): −11.42% | Change(%) in Rmax (wrinkles around eyes [2]; Before use-4 weeks after use): −4.25% | Change(%) in Rp (wrinkles around eyes [2]; Before use-4 weeks after use): −0.70% | Change(%) in Rt (wrinkles around eyes [2]; Before use-4 weeks after use): −5.35% | Change(%) in Rv (wrinkles around eyes [2]; Before use-4 weeks after use): −13.24% | Rmax numerical value (maximum height of wrinkle profile) (wrinkles around eyes [2]; Before use): 176.29 ± 27.79 | Rp numerical value (maximum profile peak height) (wrinkles around eyes [2]; Before use): 122.73 ± 31.55 | Rv numerical value (maximum profile valley depth) (wrinkles around eyes [2]; Before use): 72.32 ± 17.16 | expert visual assessment score (wrinkles around eyes [3]; 2 weeks after use): 2.17 ± 0.75 | expert visual assessment score (wrinkles around eyes [3]; 4 weeks after use): 1.67 ± 1.03 | expert visual assessment score (wrinkles around eyes [3]; Before use): 2.17 ± 0.75 | Change(%) in expert visual assessment score (wrinkles around eyes [3]; Before use-2 weeks after use): 0% | Change(%) in expert visual assessment score (wrinkles around eyes [3]; Before use-4 weeks after use): −23.08% | Number of subjects, wrinkle reduction survey (wrinkles around eyes [4]; response 0 (very bad), 4 weeks after use): 0 | Number of subjects, wrinkle reduction survey (wrinkles around eyes [4]; response 1 (bad), 4 weeks after use): 0 | Number of subjects, wrinkle reduction survey (wrinkles around eyes [4]; [6]): 1 | Percentage of subjects, wrinkle reduction survey (wrinkles around eyes [4]; [6]): (16.7) % | Number of subjects, wrinkle reduction survey (wrinkles around eyes [4]; [7]): 5 | Percentage of subjects, wrinkle reduction survey (wrinkles around eyes [4]; [7]): (83.3) % | Number of subjects, wrinkle reduction survey (wrinkles around eyes [4]; response 4 (very good), 4 weeks after use): 0 | Mean of wrinkle reduction survey response (wrinkles around eyes [4]; scale 0-4, 4 weeks after use): 2.83 | survey assessment about wrinkle reduction, test product versus control product (wrinkles around eyes [4]; third visit, 4 weeks after use): test product was better at reducing wrinkles than control product | R3 numerical value (average roughness) (wrinkles around eyes [5]): 34.24 ± 3.51
